ChEMBL document CHEMBL5356978 (Bioorg Med Chem Lett, 2024)
The source made the active and inactive calls. The rule behind the calls is not given here.

Legend:
[1] = target: T1, beta-catenin-B-cell lymphoma 9 protein complex (Homo sapiens, UniProt P35222); experiment: Inhibition of full length beta-catenin (unknown origin)/FAM labeled BCL9 (350 to 375 residues) (unknown origin) protein-protein interaction by competitive FP assay; assay type: protein-complex assay
T1 sequence (P35222 whole entry): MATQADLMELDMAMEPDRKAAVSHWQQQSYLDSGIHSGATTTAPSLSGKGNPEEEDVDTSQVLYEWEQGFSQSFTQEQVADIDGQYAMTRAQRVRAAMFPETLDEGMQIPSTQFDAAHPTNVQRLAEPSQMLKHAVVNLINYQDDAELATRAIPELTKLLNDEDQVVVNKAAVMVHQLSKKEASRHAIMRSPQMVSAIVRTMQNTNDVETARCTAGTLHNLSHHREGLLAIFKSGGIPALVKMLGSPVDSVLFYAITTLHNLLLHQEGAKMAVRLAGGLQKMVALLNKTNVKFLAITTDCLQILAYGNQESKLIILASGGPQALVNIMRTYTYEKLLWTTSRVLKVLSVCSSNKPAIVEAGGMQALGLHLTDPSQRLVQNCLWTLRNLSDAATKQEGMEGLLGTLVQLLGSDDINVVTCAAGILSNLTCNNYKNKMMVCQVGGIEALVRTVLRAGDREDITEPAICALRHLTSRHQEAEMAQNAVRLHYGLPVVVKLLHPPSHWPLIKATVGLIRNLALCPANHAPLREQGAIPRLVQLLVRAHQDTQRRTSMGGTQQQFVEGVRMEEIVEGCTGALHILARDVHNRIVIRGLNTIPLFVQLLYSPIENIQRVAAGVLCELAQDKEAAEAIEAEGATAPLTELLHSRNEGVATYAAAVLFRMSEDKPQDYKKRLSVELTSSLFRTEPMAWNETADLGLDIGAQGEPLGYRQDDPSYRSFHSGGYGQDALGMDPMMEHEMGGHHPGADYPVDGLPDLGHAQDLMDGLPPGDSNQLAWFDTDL
T1 sequence (O00512 whole entry): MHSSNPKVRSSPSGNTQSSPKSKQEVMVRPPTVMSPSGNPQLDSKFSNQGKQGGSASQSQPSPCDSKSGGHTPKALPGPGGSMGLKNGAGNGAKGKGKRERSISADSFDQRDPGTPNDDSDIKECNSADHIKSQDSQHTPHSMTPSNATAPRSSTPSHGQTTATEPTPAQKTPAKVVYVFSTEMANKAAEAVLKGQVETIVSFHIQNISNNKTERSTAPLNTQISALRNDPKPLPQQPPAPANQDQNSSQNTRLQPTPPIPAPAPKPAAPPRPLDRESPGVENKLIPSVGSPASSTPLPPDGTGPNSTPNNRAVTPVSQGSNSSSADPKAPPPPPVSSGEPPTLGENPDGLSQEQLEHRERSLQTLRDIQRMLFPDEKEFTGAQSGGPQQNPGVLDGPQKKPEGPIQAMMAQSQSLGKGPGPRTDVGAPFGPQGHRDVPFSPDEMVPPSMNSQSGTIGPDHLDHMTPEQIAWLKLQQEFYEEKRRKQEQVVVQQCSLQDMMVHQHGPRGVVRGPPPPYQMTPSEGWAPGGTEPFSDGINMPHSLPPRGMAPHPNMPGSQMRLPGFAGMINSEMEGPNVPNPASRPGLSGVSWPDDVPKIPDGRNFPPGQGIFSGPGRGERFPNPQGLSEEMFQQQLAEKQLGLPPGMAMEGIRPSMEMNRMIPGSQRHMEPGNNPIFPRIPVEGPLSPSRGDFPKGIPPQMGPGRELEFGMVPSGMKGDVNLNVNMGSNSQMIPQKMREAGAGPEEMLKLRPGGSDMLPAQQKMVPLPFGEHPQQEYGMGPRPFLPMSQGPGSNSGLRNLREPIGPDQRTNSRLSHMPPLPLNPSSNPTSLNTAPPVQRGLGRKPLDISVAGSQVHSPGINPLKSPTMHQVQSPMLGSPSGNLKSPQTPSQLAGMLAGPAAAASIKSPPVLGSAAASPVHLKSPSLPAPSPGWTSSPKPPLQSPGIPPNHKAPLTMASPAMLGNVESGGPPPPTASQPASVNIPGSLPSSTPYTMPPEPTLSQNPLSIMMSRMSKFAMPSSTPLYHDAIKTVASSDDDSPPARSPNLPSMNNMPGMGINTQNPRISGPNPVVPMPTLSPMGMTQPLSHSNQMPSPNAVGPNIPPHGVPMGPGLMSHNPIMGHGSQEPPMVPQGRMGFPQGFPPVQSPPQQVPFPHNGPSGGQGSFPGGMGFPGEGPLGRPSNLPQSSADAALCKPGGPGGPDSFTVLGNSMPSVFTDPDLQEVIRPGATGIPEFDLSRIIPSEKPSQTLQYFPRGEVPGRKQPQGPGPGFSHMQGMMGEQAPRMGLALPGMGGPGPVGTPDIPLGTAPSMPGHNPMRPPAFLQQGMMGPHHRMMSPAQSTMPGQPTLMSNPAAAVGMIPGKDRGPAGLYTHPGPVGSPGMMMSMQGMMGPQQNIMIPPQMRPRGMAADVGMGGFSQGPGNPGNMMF

[2] = Inhibition of Wnt/beta-catenin signaling pathway in mouse CT26 cells assessed as downregulation of AXIN2 expression incubated for 24 hrs by qPCR analysis; settings: CT26, 24 h
CT26 [3] = experiment: Antiproliferative activity against mouse CT26 cells harboring active Wnt/beta-catenin signal assessed as inhibition of cell proliferation by CCK8 assay
HCT-116 = experiment: Antiproliferative activity against human HCT-116 cells assessed as inhibition of cell proliferation by CCK8 assay
[4] = Inhibition of Wnt/beta-catenin signaling transactivation in human HCT-116 cells assessed as reduction in downstream nuclear transcription ability by TCF/LEF reporter assay
CT26 [5] = experiment: Induction of apoptosis in mouse CT26 cells at 5 uM incubated for 24 hrs by annexin V-FITC/PI staining based flow cytometry analysis relative to control; assay type: functional
CT26 [6] = experiment: Induction of apoptosis in mouse CT26 cells at 20 uM incubated for 24 hrs by annexin V-FITC/PI staining based flow cytometry analysis relative to control; assay type: functional
CT26 [7] = experiment: Induction of apoptosis in mouse CT26 cells assessed as increase in late apoptotic cells at 5 to 20 uM incubated for 24 hrs by annexin V-FITC/PI staining based flow cytometry analysis; assay type: functional, cell-based; settings: dose 5-20 µM
CT26 [8] = experiment: Antimigratory activity in mouse CT26 cells assessed as reduction in cell migration incubated for 24 hrs by transwell assay; assay type: functional, cell-based; settings: dose 5-20 µM
[9] = […] Colorectal cancer cells (unknown origin) assessed as regulation of immune microenvironment by measuring granzyme B positive cells at 5 to 10 uM incubated for 24 hrs by flow cytometry analysis (reference value: 16.2%); assay type: functional; parameters: scale not given: the % may be the effect or the level left; settings: dose 5-10 µM
CT26 [10] = experiment: Antitumor activity against mouse CT26 cells implanted in mouse assessed as reduction in tumor size at 15 mg/kg, ip administered for 7 days; assay type: functional, organism-based; settings: time 7.0 day
CT26 [11] = experiment: Antitumor activity against mouse CT26 cells implanted in mouse assessed as tumor growth inhibition at 15 mg/kg, ip administered for 7 days relative to control; assay type: functional; settings: CT26, 168 h, time 7 day, read-out: TGI
[12] = Toxicity in mouse implanted with mouse CT26 cells assessed as reduction in body weight at 15 mg/kg, ip administered for 7 days and measured for 11 days; assay type: organism-based; settings: in vivo, 168 h, time 7 day
cells = settings: Homo sapiens, HCT-116, 24 h
Description: Inhibition of Wnt pathway in human HCT-116 cells assessed as inhibition of Auxin2 expression incubated for 24 hrs by qPCR analysis

Structure (SMILES)	IC50 [1]	IC50 [2]	IC50 (CT26 [3])	other results
O=c1c(O)c(-c2ccc(O)c(O)c2)oc2c(-c3ccc(F)c(F)c3)c(O)cc(O)c12	3.15 µM	1.45 µM	7.1 µM	–
Cc1ccc(-c2c(O)cc(O)c3c(=O)c(O)c(-c4ccc(O)c(O)c4)oc23)cc1	–	0.76 µM	1.69 µM	IC50 (HCT-116): 1.7 µM; IC50 [4]: 0.76 µM; Activity (CT26 [5]): 29.11%; Activity (CT26 [6]): 34.03%; Activity (CT26 [7]): Active; Activity (CT26 [8]): Dose-Dependent Effect; Activity [9]: 44.5%; Activity (CT26 [10]): Active; inhibition in vivo at 15 mg/kg (CT26 [11]): 76%; Activity [12]: Non-Toxic; IC50 (cells): 4.02 µM
O=c1c(O)c(-c2ccc(O)c(O)c2)oc2cc(O)cc(O)c12 [QUERCETIN]	–	7.7 µM	–	IC50 (HCT-116): 11.4 µM; IC50 [4]: 4.87 µM; Activity (CT26 [5]): 17.36%; Activity (CT26 [6]): 23.89%; Activity (CT26 [8]): Dose-Dependent Effect; inhibition in vivo at 15 mg/kg (CT26 [11]): 43.1%; Activity [12]: Non-Toxic; IC50 (cells): 9.95 µM
COc1ccc(-c2oc3c(Nc4ccccc4)c(OC)cc(OC)c3c(=O)c2OC)cc1OC	16.2 µM	1.09 µM	2.49 µM	–
COc1ccc(-c2oc3c(-c4ccccc4)c(OC)cc(OC)c3c(=O)c2OC)cc1OC	12.1 µM	1.11 µM	15.1 µM	–
COc1ccc(-c2oc3c(C4CC4)c(OC)cc(OC)c3c(=O)c2OC)cc1OC	20 µM	2.04 µM	3.39 µM	–
COc1ccc(-c2oc3c(-c4ccc(F)c(F)c4)c(OC)cc(OC)c3c(=O)c2OC)cc1OC	5.78 µM	12 µM	32.1 µM	–
COc1ccc(-c2oc3c(-c4ccc(C(=O)O)cc4)c(OC)cc(OC)c3c(=O)c2OC)cc1OC	4.52 µM	10.4 µM	14.1 µM	–
COC(=O)c1ccc(-c2c(OC)cc(OC)c3c(=O)c(OC)c(-c4ccc(OC)c(OC)c4)oc23)cc1	7.64 µM	12 µM	16 µM	–
COc1ccc(-c2oc3c(-c4ccncc4)c(OC)cc(OC)c3c(=O)c2OC)cc1OC	2.75 µM	3.1 µM	14.2 µM	–
COc1ccc(-c2c(OC)cc(OC)c3c(=O)c(OC)c(-c4ccc(OC)c(OC)c4)oc23)cc1	17.3 µM	1.14 µM	27.8 µM	–
O=c1c(O)c(-c2ccc(O)c(O)c2)oc2c(-c3ccccc3)c(O)cc(O)c12	3.83 µM	1.31 µM	3.32 µM	–
COc1ccc(-c2oc3c(-c4ccc(C)cc4)c(OC)cc(OC)c3c(=O)c2OC)cc1OC	5.24 µM	1.97 µM	11.4 µM	–
COc1ccc(-c2oc3c(C4=CCNCC4)c(OC)cc(OC)c3c(=O)c2OC)cc1OC	8.92 µM	1.06 µM	12.9 µM	–
COc1ccc(-c2oc3c(-c4ccc(F)cc4)c(OC)cc(OC)c3c(=O)c2OC)cc1OC	6.93 µM	4.57 µM	19.8 µM	–
COc1ccc(-c2oc3c(-c4ccc(C(F)(F)F)cc4)c(OC)cc(OC)c3c(=O)c2OC)cc1OC	8.81 µM	9.2 µM	16.2 µM	–
COC(=O)c1ccc(-c2c(O)cc(O)c3c(=O)c(O)c(-c4ccc(O)c(O)c4)oc23)cc1	2.99 µM	5.05 µM	15.1 µM	–
O=c1c(O)c(-c2ccc(O)c(O)c2)oc2c(-c3ccc(F)cc3)c(O)cc(O)c12	2.35 µM	0.8 µM	3.32 µM	–
